“Also recorded” adds a separate entry of the source.
Experiments:
[1] = system: human dermal skin fibroblasts; experiment: Cell death assay in human dermal skin fibroblasts (propidium iodide); assay type: cell-based; settings: high dose vacor (100 μM), 72 h vs DMSO
Experimental: (§1) Human primary myoblasts and human dermal skin fibroblasts were cultured following previously described protocols (Kisiel and Klar 2019; Rozwadowska et al. 2022). Drug treatment was started when cells reached the desired confluency. To visualise cell death, 1 μg/ml propidium iodide (PI) (Thermo Fisher Scientific) was added to the media at the same time of drug addition (Loreto et al. 2021). Phase contrast and fluorescence microscopy images were acquired on a DMi8 upright fluorescence microscope (Leica microsystems) coupled to a monochrome digital camera (Hamamatsu C4742-95). The objective used was HCXPL 20 X/0.40 CORR.

[2] = system: expanded mouse Schwann cells; experiment: Cell death in expanded mouse Schwann cells passaged three times (phase contrast, propidium iodide); assay type: cell-based; settings: 100 μM vacor for 72 hours vs DMSO; Schwann cells passaged three times in proliferative medium
Experimental: Mouse SCs were passaged on PLL/laminin coated dishes in the presence of low serum (0.5% horse serum), 10 ng/ml Bneuregulin1 (BNRG1), and a low concentration cyclic adenosine monophosphate (CAMP) elevating signal, such as 2 μM forskolin or 100 μM dibutryl cAMP (Arthur-Farraj et al., 2011). Full protocol is described in (Mutschler et al., 2023).

[3] = LeWitt, 1980; Loreto et al., 2021; cited from earlier work
human primary myoblasts = experiment: Cell death assay in human primary myoblasts (propidium iodide); assay type: cell-based; settings: high dose vacor (100 μM), 24 h vs DMSO
Experimental: as §1

SARM1 = biological target: T1, SARM1 (Homo sapiens, UniProt Q6SZW1); settings: Loreto et al., 2021; Angeletti et al., 2022; Wu et al.; cited from earlier work
T1 sequence (Q6SZW1 28-724): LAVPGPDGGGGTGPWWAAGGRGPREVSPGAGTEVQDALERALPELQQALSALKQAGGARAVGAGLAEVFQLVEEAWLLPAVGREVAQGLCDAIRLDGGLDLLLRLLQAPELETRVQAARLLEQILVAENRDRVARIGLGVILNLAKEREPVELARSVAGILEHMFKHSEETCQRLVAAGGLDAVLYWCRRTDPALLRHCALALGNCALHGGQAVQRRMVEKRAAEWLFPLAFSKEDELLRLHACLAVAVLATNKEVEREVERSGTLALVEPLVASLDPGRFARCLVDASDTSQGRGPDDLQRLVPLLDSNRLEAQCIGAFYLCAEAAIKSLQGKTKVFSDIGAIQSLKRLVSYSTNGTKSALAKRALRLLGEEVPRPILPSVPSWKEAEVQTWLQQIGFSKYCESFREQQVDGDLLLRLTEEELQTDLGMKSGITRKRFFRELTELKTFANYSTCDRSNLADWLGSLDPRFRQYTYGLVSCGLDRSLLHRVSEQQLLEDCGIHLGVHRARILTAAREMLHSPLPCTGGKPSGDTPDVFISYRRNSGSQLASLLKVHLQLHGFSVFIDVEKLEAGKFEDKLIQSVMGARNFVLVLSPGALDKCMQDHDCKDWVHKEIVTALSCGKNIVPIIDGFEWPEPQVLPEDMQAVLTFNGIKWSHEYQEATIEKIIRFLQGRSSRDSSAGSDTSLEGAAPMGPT

Human foetal DRG axons = experiment: Axon degeneration and regeneration assay in human foetal DRGs in microfluidic chambers; assay type: cell-based; settings: 24 h after addition of 25 μM Vacor in the axonal compartment
Experimental: Human foetal DRG ganglia were dissected, dissociated and plated in microfluidic chambers (150 μm barrier, XONA Microfluidics) in 35 mm tissue culture dishes pre-coated with poly-L-lysine (100 μg/ml for 1 hr; Merck) and laminin (20 μg/ml for 1 hr; Merck) in Dulbecco's Modified Eagle's Medium (DMEM, Gibco) with 1% penicillin/streptomycin, 33 ng/ml 2.5 S NGF (all Invitrogen) and 2% B27 (Gibco). 4 μM aphidicolin (Merck) was used to reduce proliferation and viability of small numbers of non-neuronal cells. On DIV7, a difference of 100 μl of media between chambers was introduced and drugs were added to the compartment with the lower hydrostatic pressure. Phase contrast microscopy images were acquired on a DMi8 upright fluorescence microscope (Leica microsystems) coupled to a monochrome digital camera (Hamamatsu C4742-95). The objective used was HCXPL 20 X/0.40 CORR.

Schwann cells = experiment: Intracellular NAD+ in Schwann cells (NAD-glo assay); assay type: cell-based, mouse; settings: 100 μM vacor, 72 hours, compared to DMSO control
Experimental: Freshly plated mouse Schwann cells were obtained from P2 sciatic and brachial nerves. Nerves were digested with trypsin and collagenase, centrifuged and plated on laminin/Poly-L-lysine coated glass coverslips in defined medium as previously described (Arthur-Farraj et al., 2011).
[…] Protein was extracted using Pierce™ IP Lysis Buffer supplemented with cOmplete™ Mini EDTA-free Protease Inhibitor Cocktail, and a BCA assay carried out to determine protein concentration. All samples were diluted to 0.5 μg/μL. The NAD-glo assay was performed according to manufacturer's instruction of the NAD^+/NADH-Glo™ assay by Promega (G9071). In short, 25 μL of sample were incubated with 12.5 μL 0.4M HCl at 60° C. for 15 min, before 12.5 μL 0.5M Tris base were added. 10 μL NAD^+ standards or sample were then mixed with 10 μL NAD-glo master mix (1 ml luciferin detection reagent, 5 μl reductase, 5 μl reductase substrate, 5 μl NAD^+ cycling enzyme, 25 μl NAD^+ cycling substrate) and incubated at RT for 40 min. Luminescence was read using a GloMax® Explorer microplate reader and NAD^+ concentrations determined relative to a NAD^+ standard curve.

O=C(NCc1cccnc1)Nc1ccc([N+](=O)[O-])cc1 [vacor, Vacor]
cell death by propidium iodide (P.I.) staining [1]: completely insensitive; also recorded: no cell death occurs
cell death by propidium iodide (P.I.) staining and phase contrast [2]: susceptible to cellular dysfunction and death; also recorded: substantial increase in P.I. staining
neurotoxic effects in humans [3]: severe neurotoxic effects
cell death by propidium iodide (P.I.) staining (human primary myoblasts): completely insensitive; also recorded: no cell death occurs
SARM1 activity on interaction with active site (TIR domain) for base exchange reaction (SARM1): modest increase in SARM1 activity
DRG axon degeneration (Human foetal DRG axons): degenerate
Intracellular NAD+ levels (Schwann cells): no reduction; also recorded: do not change
